Laboratory results taken from patent US20180168161A1, “MICROPROPAGATION OF BLACK COHOSH” (North Carolina Agricultural and Technical State University, priority 2016, published 2018).

Test system: black cohosh plantlets
Assay: Rooting of black cohosh cultures and growth of the micropropagated plantlets in soil
Assay type: in vivo, Cimicifuga racemosa/Actaea racemose L.
Details: rooting 4 weeks, 60% shade
Experimental: All cultures described herein were transferred onto fresh media every 4 weeks. When indicated as such, the cultures were maintained in a plant tissue culture grade growth chamber under a 16-hour photoperiod (e.g. 16 hours of light per a 24 hour period) with a photo flux density of 37.6±4.8 μmol s^−1m^−2 light per day provided by cool white fluorescent tubes at 23±0.1° C., unless otherwise noted. As employed herein, MS supplemented base medium is at a pH of between about 5.4 and 5.8, supplemented with about 0.7% agar and about 3% sucrose, optionally with one or more plant growth regulators as disclosed herein. The pH of the medium is adjusted with a base, such as 1N KOH, and/or an acid, such as 1N HCl, before the agar is added. The supplemented medium is sterilized by autoclaving at about 120° C. and about 106 kPa for about 20 minutes. A first half of the cultures from Example 1B were moved to fresh MS supplemented base medium containing IBA (1.0 mg/1) and kept in a growth chamber under 16 hours light conditions per day for 4 weeks for rooting of the plantlets. See also the bottom row of FIG. 1, which refers to rooting for 4 weeks. […] A second half of the cultures from Example 1B were moved to fresh MS supplemented base medium containing NAA (0.1 mg/1) and kept in a growth chamber under 16 hours light conditions per day for 4 weeks for rooting of the plantlets. […]

O=C(O)CCCc1c[nH]c2ccccc12 [IBA, indole-3-butyric acid]
plantlet growth in soil after rooting (shoots proliferated in BA+NAA (Example 1B)): grew vigorously with normal morphology | plantlet growth in soil after rooting (shoots proliferated in kinetin+NAA (Example 1C)): grew vigorously
